Measured values from ChEMBL document CHEMBL4840339, “A naphthyridine-indole ligand for selective stabilization of G-quadruplexes and conformational conversion of hybrid topology” (Bioorg Med Chem, 2021).
The source made the active and inactive calls. No cut-off for these calls is given here.

Tests used:
Quadruplex DNA [1] = assay: Stabilization of F-Tel21-T G4 quadruplex DNA (unknown origin) assessed as thermal stability by measuring normalized intensity in presence of 10 to 50 eq dsDNA at 2 uM by FRET-based competition assay; type: nucleic-acid assay
Quadruplex DNA [2] = assay: Binding affinity to Bcl-2 G4 quadruplex DNA (unknown origin) assessed as conversion from hybrid topology to parallel topology by measuring positive signal at 266 nm at 10 to 100 uM by circular dichroism spectroscopy; type: nucleic-acid assay; conditions: dose 10-100 µM
HeLa [3] = assay: Induction of cell cycle arrest in human HeLa cells assessed as S cell population level at 6 uM incubated for 24 hrs by propidium iodide /RNase staining based flow cytometry (reference value: 36 %); type: functional
Quadruplex DNA [4] = assay: Binding affinity to Tel23 G4 quadruplex DNA (unknown origin) assessed as conversion from hybrid topology to parallel topology by measuring positive signal at 266 nm at 10 to 100 uM by circular dichroism spectroscopy; type: nucleic-acid assay; conditions: dose 10-100 µM
HeLa [5] = assay: Induction of apoptosis in human HeLa cells assessed as late apoptotic cells at 6 uM after 24 hrs by Annexin V-FITC/PI staining based flow cytometric analysis (reference value: 0.42 %); type: functional
Quadruplex DNA [6] = assay: Binding affinity to Tel26 G4 quadruplex DNA (unknown origin) assessed as conversion from hybrid topology to parallel topology by measuring positive signal at 266 nm at 10 to 100 uM by circular dichroism spectroscopy; type: nucleic-acid assay; conditions: dose 10-100 µM
Quadruplex DNA [7] = assay: Binding affinity to G4 quadruplex DNA (unknown origin) assessed as assessed as compound-DNA complex formation by 1H-NMR spectra analysis; type: nucleic-acid assay
HeLa [8] = assay: Induction of apoptosis in human HeLa cells assessed as viable cells at 6 uM after 24 hrs by Annexin V-FITC/PI staining based flow cytometric analysis (reference value: 95.8 %); type: functional; conditions: read-out: Activity
Quadruplex DNA [9] = assay: Stabilization of F-Tel21-T G4 quadruplex DNA (unknown origin) assessed as thermal stability by measuring normalized intensity at 2 uM by FRET assay; type: nucleic-acid assay
Quadruplex DNA [10] = assay: Displacement of thiazole orange from Tel26 G4 quadruplex DNA (unknown origin) assessed as relative affinity by fluorescent intercalator displacement assay; type: nucleic-acid assay
HeLa [11] = assay: Induction of apoptosis in human HeLa cells assessed as increase in caspase 3 level at 4 to 6 uM measured after 48 hrs; type: functional, cell-based; conditions: dose 4-6 µM
HeLa [12] = assay: Cytotoxicity against human HeLa cells assessed as […] in cell viability measured after 48 hrs by MTT assay; type: functional, cell-based
Quadruplex DNA [13] = assay: Binding affinity to c-MYC G4 quadruplex DNA (unknown origin) assessed as conversion from hybrid topology to parallel topology by measuring positive signal at 266 nm at 10 to 100 uM by circular dichroism spectroscopy; type: nucleic-acid assay; conditions: dose 10-100 µM
dsDNA = assay: Stabilization of dsDNA (unknown origin) assessed as thermal stability by measuring increase in melting temperature by UV melting assay; type: nucleic-acid assay
Quadruplex DNA [14] = assay: Binding affinity to c-KIT1 G4 quadruplex DNA (unknown origin) assessed as conversion from hybrid topology to parallel topology by measuring positive signal at 266 nm at 10 to 100 uM by circular dichroism spectroscopy; type: nucleic-acid assay; conditions: dose 10-100 µM
HeLa [15] = assay: Induction of apoptosis in human HeLa cells assessed as necrotic cells at 6 uM after 24 hrs by Annexin V-FITC/PI staining based flow cytometric analysis (reference value: 0.42 %); type: functional
Quadruplex DNA [16] = assay: Stabilization of G4 quadruplex DNA in human HeLa cells assessed as BG4 foci formation at 6 uM measured after 24 hrs by confocal microscopic analysis; type: cell-based
Quadruplex DNA [17] = assay: Stabilization of Tel26 G4 quadruplex DNA (unknown origin) assessed as thermal stability by measuring increase in melting temperature at 100 uM by variable temperature circular dichroism spectroscopy; type: nucleic-acid assay
Quadruplex DNA [18] = assay: Stabilization of Tel26 G4 quadruplex DNA (unknown origin) assessed as thermal stability by measuring increase in melting temperature by UV melting assay; type: nucleic-acid assay; conditions: dose 5.0 µM
HeLa [19] = assay: Induction of cell cycle arrest in human HeLa cells assessed as G0/1 cell population level at 6 uM incubated for 24 hrs by propidium iodide /RNase staining based flow cytometry (reference value: 38 %); type: functional
Quadruplex DNA [20] = assay: Binding affinity to ds26 non-G4 DNA (unknown origin) assessed as conversion from hybrid topology to parallel topology by measuring positive signal at 266 nm at 10 to 100 uM by circular dichroism spectroscopy; type: nucleic-acid assay; conditions: dose 10-100 µM
HeLa [21] = assay: Induction of apoptosis in human HeLa cells assessed as early apoptotic cells at 6 uM after 24 hrs by Annexin V-FITC/PI staining based flow cytometric analysis (reference value: 3.28 %); type: functional
Quadruplex DNA [22] = assay: Binding affinity to Tel26 G4 quadruplex DNA (unknown origin) assessed as positive signal at 266 nm measured up to 90 deg C at 100 uM by variable temperature circular dichroism spectroscopy; type: nucleic-acid assay
HeLa [23] = assay: Induction of cell cycle arrest in human HeLa cells assessed as G2/M cell population level at 6 uM incubated for 24 hrs by propidium iodide /RNase staining based flow cytometry (reference value: 36 %); type: functional

Activity (Quadruplex DNA [1]): Active
Activity (Quadruplex DNA [2]): Active
Activity (Quadruplex DNA [4]): Active
Activity (Quadruplex DNA [6]): Active
Activity (Quadruplex DNA [7]): Active
Activity (Quadruplex DNA [9]): Active
IC50 (Quadruplex DNA [10]): 6.7 µM
Activity (Quadruplex DNA [13]): inactive
Activity (dsDNA): inactive
Activity (Quadruplex DNA [14]): inactive
ΔTm (Quadruplex DNA [17]): 37 °C
Activity (Quadruplex DNA [18]): Active
Activity (Quadruplex DNA [20]): inactive
Activity (Quadruplex DNA [22]): Active
SMILES: CN(C)CCOc1ccc2c(ccn2-c2ccc3ccc(-n4ccc5cc(OCCN(C)C)ccc54)nc3n2)c1
Activity (HeLa [3]): 33%
Activity (HeLa [5]): 16.6%
viability at 6 µM (HeLa [8]): 61.8%
Activity (HeLa [11]): Active
IC50 (HeLa [12]): 4.3 µM
Activity (HeLa [15]): 1.49%
Activity (Quadruplex DNA [16]): Active
Activity (HeLa [19]): 57%
Activity (HeLa [21]): 20.1%
Activity (HeLa [23]): 10%
